The subject of one test is Adipocytes (3T3-L1). Put plainly: Fatty acid oxidation by 3H-palmitate in 3T3-L1 adipocytes. The test is classed as cell-based. As to conditions: 4 hours, low (5 mM) glucose, resveratrol 200 nM, HMB 5 uM, leucine 0.5 mM. The protocol:
High glucose medium reduced fatty acid oxidation by 46% (p<0.05).
Fatty acid oxidation was measured using ^3H-labeled palmitate oxidation, with the ^3H label trapped as water as a result of the fat oxidation. The ^3H was then measured via scintillation counter.

The test system of the next test is myotubes (C2C12). Put plainly: Fatty acid oxidation, palmitate-induced O2 consumption (Seahorse XF24), myotubes. As to conditions: 24 hours treatment, leucine 0.5 mM, HMB 5 μM, resveratrol 200 nM, partner at its no-effect concentration, % change from control. The test is classed as cell-based.
The subject of another test is UCP1. As to the kind of experiment: UCP1 mRNA expression in subcutaneous adipose tissue of diet-induced obese mice. The format is in vivo, c57/BL6 mice. As to conditions: six weeks, resveratrol 12.5 mg/kg diet, leucine 2.42%. The method, then: Expression of 18S, Sirt1, Sirt3, PGC1-α, cytochrome c oxidase subunit VIIc1 (COX 7), mitochondrial NADH dehydrogenase, nuclear respiratory factor 1 (NRF1), uncoupling protein (UCP2 (adipocyte)/UCP3 (myocyte), p53, AMPK, Akt/PKB, and GLUT4 is measured via quantitative real-time PCR using an ABI 7300 Real-Time PCR system (Applied Biosystems, Branchburg, N.J.) with a TaqMan® core reagent kit. All primers and probe sets can be obtained from Applied Biosystems TaqMan® Assays-on-Demand and utilized accordingly to manufacturer's instructions. Pooled RNA from each cell type are serial-diluted in the range of 0.0156-50 ng and were used to establish a standard curve; total RNA for each unknown sample is also diluted in this range. […] Expression of each gene of interest is then normalized using the corresponding 18S quantitation.
Six week old male c57/BL6 mice were fed a high-fat diet with fat increased to 45% of energy (Research Diets D12451) for 6 weeks to induce obesity. […] RNA was extracted from the subcutaneous adipose tissue, and gene expression was evaluated according to methods described in Example 4. […] Plasma levels of irisin were also evaluated, the results of which are described in Example 8 and illustrated in FIG. 70. […] Protein expression may also be determined by Western blot or ELISA, as in Example 8. […]

The target of test [1] is T1, SIRT1 (Mus musculus, UniProt Q923E4).
T1 sequence (Q923E4 1-737): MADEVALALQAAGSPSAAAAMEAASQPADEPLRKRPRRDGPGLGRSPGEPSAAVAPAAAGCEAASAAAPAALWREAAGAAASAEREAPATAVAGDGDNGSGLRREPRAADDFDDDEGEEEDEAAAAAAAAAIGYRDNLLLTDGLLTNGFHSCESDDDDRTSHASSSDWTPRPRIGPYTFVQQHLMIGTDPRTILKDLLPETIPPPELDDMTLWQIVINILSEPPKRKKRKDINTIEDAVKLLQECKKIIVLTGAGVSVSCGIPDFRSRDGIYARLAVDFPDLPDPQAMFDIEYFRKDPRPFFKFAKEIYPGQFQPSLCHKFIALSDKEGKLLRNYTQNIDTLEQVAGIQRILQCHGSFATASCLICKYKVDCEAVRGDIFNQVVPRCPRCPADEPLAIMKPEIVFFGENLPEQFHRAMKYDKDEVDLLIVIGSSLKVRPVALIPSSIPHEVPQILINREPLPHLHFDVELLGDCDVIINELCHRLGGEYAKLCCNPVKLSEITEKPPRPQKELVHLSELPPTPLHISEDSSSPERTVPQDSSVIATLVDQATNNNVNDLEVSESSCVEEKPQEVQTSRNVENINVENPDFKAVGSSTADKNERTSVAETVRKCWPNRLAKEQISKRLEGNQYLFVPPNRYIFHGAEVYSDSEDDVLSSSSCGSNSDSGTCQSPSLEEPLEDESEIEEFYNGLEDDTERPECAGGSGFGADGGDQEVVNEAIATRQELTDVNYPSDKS
As to the kind of experiment: Sirt1 activity of treated cells (SIRT1 Fluorimetric Drug Discovery Kit), Example 5. The format is cell-based. Also on record: endogenous in cells; host or cells: 3T3-L1 adipocytes and C2C12 myotubes. The settings on record: leucine 0.5 mM, HMB 5 μM, resveratrol 200 nM; summary in Example 5, system not stated. The method, then:
All compounds were tested for potential to independently or synergistically modulate sirtuin signaling either by direct stimulation or indirect via upstream signaling via AMPK. A key outcome of Sirt1 signaling is stimulation of PGC1-α and subsequent stimulation of mitochondrial biogenesis and fatty acid oxidation. Accordingly, fatty acid oxidation, measured as palmitate-induced oxygen consumption as described below, was utilized as a sensitive first level of screening for aerobic mitochondrial metabolism. A dose-response curve for fatty acid oxidation was established for each compound studied, and a “sub-therapeutic dose” was defined as the highest dose that exerted no effect in this system. […] Following assessment of fatty acid oxidation, Sirt1 activity, AMPK activity, mitochondrial biogenesis and glucose utilization (measured as glucose-induced extracellular acidification in the absence of fatty acids in the media) were assessed for lead combinations and appropriate controls. SIRT1 activity was measured by using the SIRT1 Fluorimetric Drug Discovery Kit (BML-AK555, ENZO Life Sciences International, Inc. PA, USA). […]

Test [2] deals with T1, SIRT1. Put plainly: Adipose tissue Sirt1 activity in diet-induced obese mice. More on the design: from tissue; host or cells: adipose tissue of diet-induced obese c57/BL6 mice. The format is in vivo, c57/BL6 mice. The settings on record: 6 weeks.

Molecules are shown by their SMILES.

With `Oc1ccc(/C=C/c2cc(O)cc(O)c2)cc1` [resveratrol, 3,5,4′-Trihydroxy-trans-stilbene], in the test on Adipocytes (3T3-L1), the “increase in fatty acid oxidation, low glucose” value was “no independent effect”. Also, the “increase in myotube fatty acid oxidation” value with myotubes (C2C12) is “neither component exerted an independent effect”. In addition, the “increase in UCP1 expression in white subcutaneous adipose tissue” value with UCP1 is “no independent effect”. In addition, the “stimulation of Sirt1 activity” value on SIRT1 [1] was “no effect”. Moreover, the “adipose tissue Sirt1 activity” value is reported as “non-significant trend towards an increase” at SIRT1 [2] (high dose resveratrol) and “Neither resveratrol nor HMB exerted significant independent effects” at SIRT1 [2] (low dose of resveratrol, HMB, leucine diets).

These data come from US10383837B2, “Compositions and methods for modulating metabolic pathways” (NuSirt Sciences, Inc., priority 2011, dated 2019).
